pIC50: −log10 of the molar value.
What was measured:
[1] = molecular target: T1, Prostaglandin G/H synthase 2 (Homo sapiens, UniProt P35354)
T1 sequence (P35354 whole entry): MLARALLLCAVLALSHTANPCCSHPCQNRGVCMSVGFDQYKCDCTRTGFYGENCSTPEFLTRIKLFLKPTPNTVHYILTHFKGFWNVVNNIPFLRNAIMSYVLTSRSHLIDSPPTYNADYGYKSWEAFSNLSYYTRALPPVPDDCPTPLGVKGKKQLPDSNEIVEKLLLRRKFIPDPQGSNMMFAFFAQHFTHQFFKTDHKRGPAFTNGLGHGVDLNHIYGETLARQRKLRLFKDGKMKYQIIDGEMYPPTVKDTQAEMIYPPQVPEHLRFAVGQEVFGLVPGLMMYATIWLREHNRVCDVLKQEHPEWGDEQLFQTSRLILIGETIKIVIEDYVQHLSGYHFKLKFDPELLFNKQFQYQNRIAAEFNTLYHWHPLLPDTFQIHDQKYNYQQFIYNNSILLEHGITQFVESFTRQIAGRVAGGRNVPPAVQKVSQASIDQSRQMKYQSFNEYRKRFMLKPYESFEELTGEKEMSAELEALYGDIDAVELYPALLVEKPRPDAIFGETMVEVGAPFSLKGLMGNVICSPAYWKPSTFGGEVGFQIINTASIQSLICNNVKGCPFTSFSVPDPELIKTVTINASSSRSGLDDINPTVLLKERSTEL

[2] = molecular target: Prostaglandin G/H synthase 1 (Homo sapiens, UniProt P23219); format: tissue-based, Blood
Chain of Prostaglandin G/H synthase 1 (P23219 whole entry): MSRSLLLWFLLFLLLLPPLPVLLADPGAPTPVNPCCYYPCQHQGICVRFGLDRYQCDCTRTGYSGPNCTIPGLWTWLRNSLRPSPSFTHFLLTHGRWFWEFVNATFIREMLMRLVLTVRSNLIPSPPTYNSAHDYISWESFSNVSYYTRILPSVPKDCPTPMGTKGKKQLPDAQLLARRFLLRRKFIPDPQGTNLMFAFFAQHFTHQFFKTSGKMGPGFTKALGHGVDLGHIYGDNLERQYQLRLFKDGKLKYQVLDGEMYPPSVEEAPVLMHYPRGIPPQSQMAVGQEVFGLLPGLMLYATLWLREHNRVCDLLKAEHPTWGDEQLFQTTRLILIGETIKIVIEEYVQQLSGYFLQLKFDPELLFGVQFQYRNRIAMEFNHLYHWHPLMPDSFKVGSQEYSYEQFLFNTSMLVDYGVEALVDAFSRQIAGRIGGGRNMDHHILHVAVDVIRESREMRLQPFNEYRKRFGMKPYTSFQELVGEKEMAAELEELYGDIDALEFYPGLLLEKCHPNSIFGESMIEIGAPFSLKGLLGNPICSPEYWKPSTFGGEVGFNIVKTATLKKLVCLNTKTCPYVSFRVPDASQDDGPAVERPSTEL
Description: Inhibition of COX-1 in human whole blood preincubated for 60 mins followed by calcium ionophore A23187 addition and measured after 30 mins by radioimmunoassay

[3] = molecular target: T1, Prostaglandin G/H synthase 2; format: tissue-based, Blood

pIC50 [1]	pIC50 [2]	pIC50 [3]	Compound
4.44			O=C(O)CCc1nc(-c2ccccc2)c(-c2ccccc2)o1 [OXAPROZIN]
	6.46	6.09	Cc1ccc(C(=O)c2ccc(CC(=O)O)n2C)cc1 [TOLMETIN]
